Patent publication US8367319B2, “Methods and compositions for the identification of antibiotics that are not susceptible to antibiotic resistance” (Wayne State University, priority 2002, dated 2013)
≈ marks a conversion by molar mass, not a printed value. Like-named read-outs stand apart in the source and are kept apart here.

What was measured:
[1] = tested on: E. coli DH5; assay: Minimum inhibitory concentration (MIC) of chloramphenicol for cells expressing plasmid-derived ribosomes (CAT reporter); assay type: cell-based; conditions: for MIC: Escherichia coli
Experimental: Bacterial strains and media. All plasmids were maintained and expressed in E. coli DH5 (supE44, hsdR17, recA1, endA1, gyrA96, thi-1 and relA1) (36). To induce synthesis of plasmid-derived rRNA from the lacUV5 promoter, IPTG was added to a final concentration of 1 mM. Chloramphenicol acetyltransferase activity was determined essentially as described by Nielsen et al. (1989) Anal. Biochem. 179: 19-23. Cultures for CAT assays were grown in LB-Ap100. MIC were determined by standard methods in microtiter plates as described in Lee, K., et al. (1997) J. Mol. Biol. 269: 732-743.
Minimum inhibitory concentration determination. MICs were determined by standard methods in microtiter plates or on solid medium. Overnight cultures grown in LB-Ap100 were diluted and induced in the same medium containing 1 mM IPTG for three hours. Approximately 10^4 induced cells were then added to wells (or spotted onto solid medium) containing LB-Ap100+ IPTG (1 mM) and chloramphenicol at increasing concentrations.

[2] = tested on: E. coli DH5; assay: as above; assay type: cell-based; conditions: for MIC: Escherichia coli; remark: listed apart in the source

SMILES: O=C(N[C@H](CO)[C@H](O)c1ccc([N+](=O)[O-])cc1)C(Cl)Cl [chloramphenicol]
- MIC ([1]; DH5, 451 of 536 selected MBS-RBS isolates (84.1%), in the presence of inducer, read-out: MIC of chloramphenicol): 400 to 600 µg/mL
- MIC ([1]; DH5, 24 h, cells expressing wild-type rRNA from pRNA122 (unmutated control), induced with 1 mM IPTG, 24 hours, read-out: MIC of chloramphenicol): 600 µg/mL
- MIC ([1]; DH5, 24 h, nine slow growing MBS-RBS isolates (1.7%), in the presence of inducer, scored after 24 hours, read-out: MIC of chloramphenicol): < 350 µg/mL
- MIC ([1]; DH5, pRNA122 (specialized ribosomes), induced cells, read-out: MIC of chloramphenicol): 550 to 600 µg/mL
- MIC ([1]; DH5, read-out: MIC of chloramphenicol, mean over mutants, cells expressing 78 functional 790-loop mutants in pRNA122, standard deviation 89): 320 µg/mL
- MIC ([1]; DH5, read-out: MIC of chloramphenicol, median and mode over mutants, cells expressing 78 functional 790-loop mutants in pRNA122): 350 µg/mL
- MIC ([1]; DH5, read-out: MIC of chloramphenicol, remaining 76 selected MBS-RBS clones (14.2%), in the presence of inducer): 600 µg/mL
- chloramphenicol concentration to which cells are sensitive ([1]; pRNA122 + wt MBS: CAT message translated by wild-type ribosomes): < 10 µg/mL
- MIC of chloramphenicol, range over mutants ([1]; {}): 150 to 550 µg/mL
- MIC ([2]; DH5, pRNA122 (specialized ribosomes), uninduced, read-out: background chloramphenicol MIC): 40 to 50 µg/mL (≈ 124 to 155 µM)
- MIC ([2]; DH5, uninduced cells containing pRNA100 (FIG. 13), read-out: MIC of chloramphenicol): 100 µg/mL
- Chloramphenicol resistance ([2]; uninduced cells containing pRNA100): 75 µg/mL
